From patent US20120196899A1, “METHODS AND PRODUCTS FOR TREATING INFLAMMATION” (Rock Creek Pharmaceuticals, Inc., priority 2010, published 2012)
Read-outs that look alike come from different tables or passages of the source.

Assay: Plasma toxicokinetics after single i.v. bolus
Type: in vivo, Sprague-Dawley rats
Details: for concentration at 0.5 h / concentration at 1 h / concentration at 2 h / concentration at 4 h / concentration at 6 h / concentration at 8 h / AUC(0-inf) / MRT / Vd / half-life: Sprague-Dawley, rat, plasma; for concentration at 0.5 h / concentration at 1 h / concentration at 2 h / concentration at 4 h / concentration at 6 h / concentration at 8 h: intravenous, read-out: Avg. Conc. rat plasma; for AUC(0-inf) / MRT / Vd / half-life: iv; for half-life: read-out: t1/2 (converted)
Protocol: Six rats (3 males and 3 females) were dosed per dose group. […] Plasma and brain homogenates were stored at −80° C. until analysis.
An additional 48 rats (24 males and 24 females) received a single intravenous dose via the tail vein at the same doses as mentioned above. At 30 and 360 minutes post administration, 6 rats (3 males and 3 females) per dose group, per time point were euthanized, bled via cardiac puncture, and perfused, and brains were collected. The brains were homogenized. Blood was spun, and plasma was collected. Plasma and brain homogenate were stored at −80° C.
Four aliquots of each dose level formulation were collected and stored at −80° C. The test compound, corresponding dose level, number of animals, and sample collection times for Phase I of the study are shown in Table 3. The test compound, corresponding dose level, number of animals, and sample collection times for Phase II of the study are shown in Table 4. The physical signs of each animal were monitored following administration of the test compound.
The animals were weighed prior to dosing and received a single i.v. dose of either test compound at a volume of 5 mL/kg. Blood was collected via the venus plexus (retro-orbital) into tubes containing (K2) EDTA. No more than 0.5 mL was collected per time point. […] The brain was removed, weighed, homogenized in sterile 0.9% saline at a volume equal to its weight, and stored at −80° C.
Plasma was separated according to the instructions for MICROTAINER® brand collection tubes (3 minutes, 2000×g). Plasma was decanted into microfuge tubes and stored at −80° C. Remaining test compound was stored at −80° C.
The signal was optimized for each compound by electrospray ionization (ESI) positive or negative ionization mode. A single ion mode (SIM) scan was used to optimize the Fragmentor for the precursor ion and a product ion analysis was used to identify the best fragment for analysis and to optimize the collision energy. The fragment which gave the most sensitive and specific signal was chosen.
Sample preparation. […] The amount of the test agent in the supernatant was determined by liquid chromatography tandem mass spectrometry (LC/MS/MS).
Analysis. Samples were analyzed by LC/MS/MS using an Agilent 6410 mass spectrometer coupled with an Agilent 1200 high pressure liquid chromatography (HPLC) and a CTC PAL chilled autosampler, all controlled by MassHunter software (Agilent). After separation on a hydrophilic interaction liquid chromatography (HILIC) HPLC column (Sepax) using an acetonitrile-ammonium acetate/acetic acid gradient system, peaks were analyzed by mass spectrometry (MS) using ESI ionization in multiple reaction monitoring (MRM) mode. MassHunter software was used to calculate the concentration of the test compounds in samples from the peak area using the appropriate calibration curves.
Calibration samples. Calibration curves were determined for both rat plasma and brain homogenate. Calibration samples were prepared by diluting a 50× stock solution of the test compound in PBS with blank matrix to the appropriate concentration and these samples were prepared as described above in the sample preparation.

[1] = female, 0.1 mg/kg, Anatabine 0.1 mg/kg, female
[2] = female, 0.75 mg/kg, Anatabine 0.75 mg/kg, female
[3] = female, 1 mg/kg, Anatabine 1.0 mg/kg, female
[4] = male, 0.1 mg/kg, Anatabine 0.1 mg/kg, male
[5] = male, 0.75 mg/kg, Anatabine 0.75 mg/kg, male
[6] = male, 1 mg/kg, Anatabine 1.0 mg/kg, male

SMILES: C1=CCC(c2cccnc2)NC1 (racemic) [Anatabine, 1,2,3,6-tetrahydro-[2,3′]bipyridinyl]
- concentration at 0.5 h (female, 0.1 mg/kg, Anatabine 0.1 mg/kg, female, 0.5 hr (2nd 0.5 hr line)): 0.0317 µg/mL
- concentration at 1 h [1]: 0.011 µg/mL
- concentration at 2 h [1]: 0.0067 µg/mL
- concentration at 4 h [1]: 0.004 µg/mL
- concentration at 6 h (female, 0.1 mg/kg, Anatabine 0.1 mg/kg, female, 6 hr (1st 6 hr line, N=3)): 0.0037 µg/mL
- concentration at 6 h (female, 0.1 mg/kg, Anatabine 0.1 mg/kg, female, 6 hr (2nd 6 hr line, N=1)): 0.003 µg/mL
- concentration at 0.5 h (female, 0.75 mg/kg, Anatabine 0.75 mg/kg, female, 0.5 hr (1st 0.5 hr line)): 0.19 µg/mL
- concentration at 0.5 h (female, 0.75 mg/kg, Anatabine 0.75 mg/kg, female, 0.5 hr (2nd 0.5 hr line)): 0.354 µg/mL
- concentration at 1 h [2]: 0.173 µg/mL
- concentration at 2 h [2]: 0.0997 µg/mL
- concentration at 4 h [2]: 0.0453 µg/mL
- concentration at 6 h (female, 0.75 mg/kg, Anatabine 0.75 mg/kg, female, 6 hr (1st 6 hr line)): 0.0183 µg/mL
- concentration at 6 h (female, 0.75 mg/kg, Anatabine 0.75 mg/kg, female, 6 hr (2nd 6 hr line)): 0.023 µg/mL
- concentration at 8 h [2]: 0.011 µg/mL
- concentration at 0.5 h (female, 1 mg/kg, Anatabine 1.0 mg/kg, female, 0.5 hr (1st 0.5 hr line)): 0.237 µg/mL
- concentration at 0.5 h (female, 1 mg/kg, Anatabine 1.0 mg/kg, female, 0.5 hr (2nd 0.5 hr line)): 0.368 µg/mL
- concentration at 1 h [3]: 0.229 µg/mL
- concentration at 2 h [3]: 0.164 µg/mL
- concentration at 4 h [3]: 0.0607 µg/mL
- concentration at 6 h (female, 1 mg/kg, Anatabine 1.0 mg/kg, female, 6 hr (1st 6 hr line)): 0.0293 µg/mL
- concentration at 6 h (female, 1 mg/kg, Anatabine 1.0 mg/kg, female, 6 hr (2nd 6 hr line)): 0.023 µg/mL
- concentration at 8 h [3]: 0.0177 µg/mL
- AUC(0-inf) (female, 0.1 mg/kg): 0.0379 ± 0.0159 µg·h/mL
- MRT (female, 0.1 mg/kg): 2.55 ± 0.93 h
- Vd (female, 0.1 mg/kg): 6.52 ± 0.66 L/kg
- AUC(0-inf) (female, 0.75 mg/kg): 0.544 ± 0.0627 µg·h/mL
- Vd (female, 0.75 mg/kg): 3.19 ± 0.15 L/kg
- half-life (female, 0.75 mg/kg, anatabine 0.75 mg/kg single i.v., female rats): 1.73 ± 0.03 h
- AUC(0-inf) (female, 1 mg/kg): 0.789 µg·h/mL
- MRT (female, 1 mg/kg): 2.8 h
- Vd (female, 1 mg/kg): 3.16 ± 0.15 L/kg
- half-life (female, 1 mg/kg, anatabine 1.0 mg/kg single i.v., female rats): 1.84 h
- concentration at 0.5 h (male, 0.1 mg/kg, Anatabine 0.1 mg/kg, male, 0.5 hr (1st 0.5 hr line)): 0.0153 µg/mL
- concentration at 0.5 h (male, 0.1 mg/kg, Anatabine 0.1 mg/kg, male, 0.5 hr (2nd 0.5 hr line)): 0.0317 µg/mL
- concentration at 1 h [4]: 0.0123 µg/mL
- concentration at 2 h [4]: 0.0063 µg/mL
- concentration at 4 h [4]: 0.003 µg/mL
- concentration at 6 h (male, 0.1 mg/kg, Anatabine 0.1 mg/kg, male, 6 hr (2nd 6 hr line)): 0.005 µg/mL
- concentration at 0.5 h (male, 0.75 mg/kg, Anatabine 0.75 mg/kg, male, 0.5 hr (1st 0.5 hr line)): 0.181 µg/mL
- concentration at 0.5 h (male, 0.75 mg/kg, Anatabine 0.75 mg/kg, male, 0.5 hr (2nd 0.5 hr line)): 0.302 µg/mL
- concentration at 1 h [5]: 0.152 µg/mL
- concentration at 2 h [5]: 0.0837 µg/mL
- concentration at 4 h [5]: 0.0347 µg/mL
- concentration at 6 h (male, 0.75 mg/kg, Anatabine 0.75 mg/kg, male, 6 hr (1st 6 hr line)): 0.014 µg/mL
- concentration at 6 h (male, 0.75 mg/kg, Anatabine 0.75 mg/kg, male, 6 hr (2nd 6 hr line)): 0.022 µg/mL
- concentration at 8 h [5]: 0.009 µg/mL
- concentration at 0.5 h (male, 1 mg/kg, Anatabine 1.0 mg/kg, male, 0.5 hr (1st 0.5 hr line)): 0.272 µg/mL
- concentration at 0.5 h (male, 1 mg/kg, Anatabine 1.0 mg/kg, male, 0.5 hr (2nd 0.5 hr line)): 0.399 µg/mL
- concentration at 1 h [6]: 0.234 µg/mL
- concentration at 2 h [6]: 0.123 µg/mL
- concentration at 4 h [6]: 0.0423 µg/mL
- concentration at 6 h (male, 1 mg/kg, Anatabine 1.0 mg/kg, male, 6 hr (1st 6 hr line)): 0.018 µg/mL
- concentration at 6 h (male, 1 mg/kg, Anatabine 1.0 mg/kg, male, 6 hr (2nd 6 hr line)): 0.027 µg/mL
- concentration at 8 h [6]: 0.0077 µg/mL
- AUC(0-inf) (male, 0.1 mg/kg): 0.032 ± 0.0077 µg·h/mL
- MRT (male, 0.1 mg/kg): 2.03 ± 0.41 h
- Vd (male, 0.1 mg/kg): 5.29 ± 0.49 L/kg
- half-life (male, 0.1 mg/kg, anatabine 0.1 mg/kg single i.v., male rats): 1.25 ± 0.32 h
- AUC(0-inf) (male, 0.75 mg/kg): 0.464 ± 0.0362 µg·h/mL
- MRT (male, 0.75 mg/kg): 2.5 ± 0.19 h
- Vd (male, 0.75 mg/kg): 3.48 ± 0.18 L/kg
- AUC(0-inf) (male, 1 mg/kg): 0.631 µg·h/mL
- MRT (male, 1 mg/kg): 2.18 h
- Vd (male, 1 mg/kg): 3.01 ± 0.12 L/kg
- half-life (male, 1 mg/kg, anatabine 1.0 mg/kg single i.v., male rats): 1.44 h
- plasma concentration between approximately 6 and 8 hours (nicotine 0.4 mg/kg, anatabine 0.1 mg/kg single i.v., rats): below the limits of quantitation
